In ChEMBL document CHEMBL1201862, “PubChem BioAssay data set” (2004):
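Dose response: 5 concentrations. Exposure: 48 h. Format: 96-well plates. Endpoint: linear interpolation; highest concentration if not reached. GI50 marks 50% less growth.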 Active and inactive are the calls of the source. Rule as the data show it: active = GI50 up to about 1.1 µM and inactive = higher.

Experiments:
Assay in all cases: DTP human tumour cell line panel, 48 h
A549 = system: A549
MDA-MB-231 = system: MDA-MB-231
Malme-3M = system: Malme-3M
TK-10 = system: TK-10
RPMI-8226 = system: RPMI-8226
MDA-N = system: MDA-N
HCT-15 = system: HCT-15
HCC 2998 = system: HCC 2998
EKVX = system: EKVX
ACHN = system: ACHN
NCI-H460 = system: NCI-H460
HOP-92 = system: HOP-92
MCF7 = system: MCF7
786-0 = system: 786-0
LOX IMVI = system: LOX IMVI
MOLT-4 = system: MOLT-4
KM12 = system: KM12
HOP-62 = system: HOP-62
OVCAR-4 = system: OVCAR-4
K562 = system: K562
M14 = system: M14
SK-MEL-2 = system: SK-MEL-2
NCI/ADR-RES = system: NCI/ADR-RES
T47D = system: T47D
OVCAR-8 = system: OVCAR-8
UACC-62 = system: UACC-62
MDA-MB-435 = system: MDA-MB-435
Hs-578T = system: Hs-578T
OVCAR-5 = system: OVCAR-5
SF-268 = system: SF-268
SN12C = system: SN12C
SK-MEL-5 = system: SK-MEL-5
A498 = system: A498
HL-60 = system: HL-60
HCT-116 = system: HCT-116
CAKI-1 = system: CAKI-1
SNB-75 = system: SNB-75
UACC-257 = system: UACC-257
SK-OV-3 = system: SK-OV-3
NCI-H23 = system: NCI-H23
OVCAR-3 = system: OVCAR-3
COLO 205 = system: COLO 205
UO-31 = system: UO-31
SK-MEL-28 = system: SK-MEL-28
RXF 393 = system: RXF 393
CCRF-CEM = system: CCRF-CEM
DU-145 = system: DU-145
BT-549 = system: BT-549
PC-3 = system: PC-3
SR = system: SR
SW-620 = system: SW-620
SNB-19 = system: SNB-19
HT-29 = system: HT-29
NCI-H226 = system: NCI-H226
SF-295 = system: SF-295
NCI-H522 = system: NCI-H522
U-251 = system: U-251
SF-539 = system: SF-539
IGROV-1 = system: IGROV-1

Measured: GI50

O=C(c1ccc(Cl)c(Cl)c1)N(C(=O)N1CCN(c2ccccc2)CC1)S(=O)(=O)c1ccccc1
24.5 µM: HCT-15
inactive: A549 > 100 µM | MDA-MB-231 35.6 µM | Malme-3M 60 µM | TK-10 > 100 µM | RPMI-8226 32.6 µM | MDA-N 26.2 µM | HCC 2998 > 100 µM | EKVX > 100 µM | ACHN 97.1 µM | NCI-H460 68.7 µM | HOP-92 20.9 µM | MCF7 36.1 µM | 786-0 35.6 µM | LOX IMVI 19.9 µM | MOLT-4 12.9 µM | KM12 > 100 µM | HOP-62 31.6 µM | OVCAR-4 24.2 µM | K562 22.9 µM | M14 37.2 µM | SK-MEL-2 23.2 µM | NCI/ADR-RES 34 µM | T47D > 100 µM | OVCAR-8 26.9 µM | UACC-62 32.8 µM | MDA-MB-435 46.7 µM | Hs-578T 57 µM | OVCAR-5 26.9 µM | SF-268 38.2 µM | SN12C 36.1 µM | SK-MEL-5 28.2 µM | A498 > 100 µM | HL-60 > 100 µM | HCT-116 29.8 µM | CAKI-1 55.6 µM | SNB-75 91.4 µM | UACC-257 > 100 µM | SK-OV-3 27 µM | NCI-H23 37.5 µM | OVCAR-3 29.6 µM | COLO 205 > 100 µM | UO-31 25.1 µM | SK-MEL-28 > 100 µM | RXF 393 > 100 µM | CCRF-CEM 19 µM | DU-145 > 100 µM | BT-549 40.6 µM | PC-3 32 µM | SR 20.7 µM | SW-620 36.1 µM | SNB-19 36.6 µM | HT-29 46.7 µM | NCI-H226 24.2 µM | SF-295 49.4 µM | NCI-H522 19 µM | U-251 25.5 µM | SF-539 41.2 µM

O=c1c2cc(I)ccc2nc(Sc2ncccc2[N+](=O)[O-])n1Cc1ccccc1
active: HL-60 0.122 µM | CCRF-CEM 0.249 µM
inactive: A549 28 µM | MDA-MB-231 21.1 µM | TK-10 37.2 µM | IGROV-1 13.7 µM | RPMI-8226 19.1 µM | MDA-N 20.4 µM | HCC 2998 26.7 µM | EKVX 17.7 µM | ACHN 39.1 µM | NCI-H460 29.4 µM | HOP-92 5.33 µM | MCF7 18.3 µM | 786-0 23.2 µM | LOX IMVI 34.3 µM | MOLT-4 23.2 µM | KM12 27.4 µM | HOP-62 70 µM | OVCAR-4 33.3 µM | K562 38.5 µM | M14 28.3 µM | SK-MEL-2 7.38 µM | NCI/ADR-RES 17.2 µM | T47D 26.3 µM | OVCAR-8 31 µM | UACC-62 21.2 µM | MDA-MB-435 23.7 µM | Hs-578T 16.7 µM | OVCAR-5 > 100 µM | SF-268 22.1 µM | SN12C 20.6 µM | SK-MEL-5 18.3 µM | A498 24.6 µM | HCT-116 18.8 µM | CAKI-1 25.8 µM | SNB-75 7.08 µM | UACC-257 23.2 µM | SK-OV-3 63.1 µM | NCI-H23 24 µM | OVCAR-3 22 µM | COLO 205 27.5 µM | UO-31 14.3 µM | SK-MEL-28 > 100 µM | RXF 393 13.4 µM | DU-145 22.5 µM | BT-549 11.6 µM | PC-3 26.5 µM | SR 7.08 µM | SW-620 33.1 µM | SNB-19 45.9 µM | HT-29 34.2 µM | NCI-H226 22.3 µM | SF-295 60 µM | NCI-H522 13.2 µM | U-251 35.2 µM | SF-539 32.2 µM
19.3 µM: HCT-15
